# Earlier results as cited in publication PMC10410440, “Preclinical PK investigation of a novel IDO1/TDO dual inhibitor—SHR9146 in mouse plasma and tissues by LC-MS/MS” (Frontiers in Oncology, 2023).
# Design: method as in PMID 31221619
# Conditions: phase III trial; epacadostat combined with a PD-1 checkpoint inhibitor compared with pembrolizumab alone; cited from earlier work
smiles,measurement,value
NS(=O)(=O)NCCNc1nonc1C(=NO)Nc1ccc(F)c(Br)c1 [epacadostat],progression-free survival rate,no significant improvement
